Entries after “also recorded” stand apart in the source; their conditions may differ.
What was measured:
[1] = tested on: horses; conditions: 4 mg/kg i.v., ref Toutain et al., 1994; cited from earlier work
[2] = tested on: horses; conditions: clinical cases, ref Johnson et al., 1993, Raekallio et al., 1997; cited from earlier work
[3] = Plasma pharmacokinetics of t-TUCB after intravenous administration; assay type: in vivo, horses; conditions: for AUClast (h*ng/mL)/dose: dose-corrected; for AUClast (h*ng/mL)/dose / Clast (last measured plasma concentration) / Tlast (time of last measured plasma concentration) / λz lower / λz upper: mean ± SEM; for Plasma kinetics (order): preliminary
[4] = Synovial fluid t-TUCB concentrations after intravenous administration; assay type: in vivo; conditions: horses, i.v., 1 mg/kg
[5] = tested on: horses with lipopolysaccharide-induced radiocarpal synovitis; experiment: Pain; assay type: in vivo; conditions: for Horses qualifying for rescue analgesia if only VAS > 50 at rest had been used: control 5/6; for Proportion of positive-to-negative responses to touch (tactile allodynia): control 1.7; for AUC of AAEP lameness scores compared to control / AUC of visual analog pain scores compared to control: first 12 h and entire 48 h
[6] = tested on: horses with lipopolysaccharide-induced radiocarpal synovitis; assay type: in vivo
[7] = tested on: horses; experiment: Physical exam variables, hematology and serum biochemistry; assay type: in vivo
[8] = tested on: equine soluble epoxide hydrolase (sEH); conditions: ref Guedes et al., 2016, cited from earlier work
[9] = tested on: rats; conditions: doses as low as 0.1 mg/kg, ref Wagner et al., 2013; cited from earlier work
[10] = Thoroughbred, Quarter Horse, Dutch Warmblood (mixed group), plasma, iv, 1 mg/kg
[11] = Thoroughbred, Quarter Horse, Dutch Warmblood, plasma, iv, 0.1 mg/kg
[12] = Thoroughbred, Quarter Horse, Dutch Warmblood, plasma, iv, 0.3 mg/kg
[13] = horses, i.v., 0.1 mg/kg, plasma
[14] = horses, i.v., 0.3 mg/kg, plasma

In the case of `CCCCC1C(=O)N(c2ccccc2)N(c2ccccc2)C1=O` [phenylbutazone], the “Analgesic effects in carpal Freund's adjuvant arthritis model” value [1] is given as “not readily demonstrated; also recorded: could not be demonstrated” and the “Duration of post-surgical analgesia” value [2] is given as < 12 h.
`O=C(Nc1ccc(OC(F)(F)F)cc1)N[C@H]1CC[C@H](Oc2ccc(C(=O)O)cc2)CC1` [t-TUCB, trans-4-{4-[3-(4-Trifluoromethoxy-phenyl)-ureido]-cyclohexyloxy}-benzoic acid] showed a Vd [3, 10] of 0.571 ± 0.104 L/kg, a clearance [3, 10] of 0.233 mL/min/kg and a half-life [3, 10] of 1440 ± 300 min. For the same molecule, the AUC(0-inf) [3, 11] was 2000 ± 530 ng·h/mL, the AUC(0-t) [3, 11] was 1610 ± 360 ng·h/mL and the AUC(0-inf) [3, 12] was 6370 ± 526 ng·h/mL. The AUC(0-t) [3, 12] was 5840 ± 488 ng·h/mL, the AUC(0-t) ([3]; Thoroughbred, Quarter Horse, Dutch Warmblood, plasma, iv, 1 mg/kg) was 50100 ± 5600 ng·h/mL and the “AUClast (h*ng/mL)/dose” value ([3]; horses, i.v., 0.1 mg/kg) was 16066±3595^a h*ng/mL. The “AUClast (h*ng/mL)/dose” value ([3]; horses, i.v., 0.3 mg/kg) was 19467±1625^a h*ng/mL, the “AUClast (h*ng/mL)/dose” value ([3]; horses, i.v., 1 mg/kg) was 50139±5604^b h*ng/mL and the Plasma concentrations ([3]; horses, i.v., 0.03 mg/kg) was “undetectable or very low”. For the same molecule, the “Clast (last measured plasma concentration)” value [3, 13] was 17 ± 5 ng/mL, the “Tlast (time of last measured plasma concentration)” value (“Tlast” for short) [3, 13] was 38 ± 5 h and the λz lower [3, 13] was 8 ± 4 h. The λz upper [3, 13] was 38 ± 5 h, the “Clast (last measured plasma concentration)” value [3, 14] was 29 ± 3 ng/mL and the “Tlast” value [3, 14] was 48 ± 0 h. For the same molecule, the λz lower [3, 14] was 11 ± 5 h, the λz upper [3, 14] was 48 ± 0 h and the “Clast (last measured plasma concentration)” value ([3]; horses, i.v., 1 mg/kg, plasma) was 538 ± 76 ng/mL. The “Tlast” value ([3]; horses, i.v., 1 mg/kg, plasma) was 48 ± 0 h, the λz lower ([3]; horses, i.v., 1 mg/kg, plasma) was 14 ± 5 h and the λz upper ([3]; horses, i.v., 1 mg/kg, plasma) was 48 ± 0 h. The “Plasma kinetics (order)” value ([3]; horses, i.v., 0.1 and 0.3 mg/kg) was “linear or first order plasma kinetics”, the “Plasma kinetics (order)” value ([3]; horses, i.v., highest dose (1 mg/kg)) was “may have approached a non-linear or zero order kinetics” and the clearance ([3]; plasma, iv, 0.1 mg/kg) was 1.13 mL/min/kg. The clearance ([3]; plasma, iv, 0.3 mg/kg) was 0.8 mL/min/kg, the AUC(0-inf) ([3]; plasma, iv, 1 mg/kg) was 71100 ± 5780 ng·h/mL and the clearance ([3]; plasma, iv, 1 mg/kg) was 0.233 mL/min/kg. For the same molecule, the half-life ([3]; plasma, iv, 1 mg/kg) was 1440 ± 300 min, the “Synovial fluid concentrations reached” value [4] was “high concentrations” and the “Synovial fluid t-TUCB concentration, inflamed compared to non-inflamed joint” value [4] was “significantly higher”. For the same molecule, the “Horses qualifying for rescue analgesia if only VAS > 50 at rest had been used” value (“Horses qualifying” below) ([5]; 0.03 mg/kg i.v.) was 5/6, the “Proportion of positive-to-negative responses to touch (tactile allodynia)” value (“Proportion” below) ([5]; 0.1 mg/kg i.v.) was 0.8 and the “Horses qualifying” value ([5]; 0.1 mg/kg i.v.) was 4/6. The “Proportion” value ([5]; 0.3 mg/kg i.v.) was 1.3, the “Horses qualifying” value ([5]; 0.3 mg/kg i.v.) was 1/4 and the “Proportion” value ([5]; 1 mg/kg i.v.) was 0.2. The “Horses qualifying” value ([5]; 1 mg/kg i.v.) was 2/5, the “AUC of AAEP lameness scores compared to control” value ([5]; 1 mg/kg i.v.) was “significantly lower” and the “AUC of visual analog pain scores compared to control” value ([5]; 1 mg/kg i.v.) was “significantly lower”. For the same molecule, the “AUC of AAEP lameness scores compared to control” value ([5]; 0.1 and 0.3 mg/kg i.v.) was “not the others”, the “AUC of visual analog pain scores compared to control” value ([5]; 0.1 and 0.3 mg/kg i.v.) was “not the others” and the “Carpus circumference compared to control” value ([6]; 1 mg/kg i.v., at 36 h) was “reaching statistical significance”. For the same molecule, the “Anti-inflammatory activity (inflammatory cell numbers, joint effusion, protein concentration)” value ([6]; 0.1-1 mg/kg i.v.) was “no important anti-inflammatory effects; also recorded: negligible anti-inflammatory activity”, the “Carpus circumference compared to the remaining treatments” value ([6]; 0.3 and 1 mg/kg i.v.) was “increased slightly less” and the “Adverse effects on physical and laboratory examinations” value ([7]; 0.03-1 mg/kg i.v.) was “No adverse effects were observed”. The “Effect of treatment on respiratory rate, heart rate and mean arterial pressure” value ([7]; 0.1, 0.3 and 1 mg/kg i.v., after LPS) was “not of treatment”, the “Hematology and serum biochemistry results” value ([7]; all treatments (0.03-1 mg/kg i.v.)) was “within the normal laboratory reference range” and the “In vitro 95% inhibitory concentration (IC95)” value ([8]; equine sEH) was 96.4 ng/mL. The “Potency against equine sEH compared to rat sEH” value ([8]; in vitro, Wagner et al., 2013) was “approximately 3 fold” and the “Mechanical hyperalgesia to intra-plantar LPS” value [9] was “significantly attenuated”.

Source: article PMC5920688 (Journal of veterinary pharmacology and therapeutics, 2017)
